Experimental data reported in patent publication US9090593B2, “Bicyclic compounds as Pim inhibitors” (AMGEN INC., priority 2010, dated 2015).

Legend:
Type in all cases: biochemical
[1] = molecular target: T1, full length recombinant Pim-2 protein (Homo sapiens, UniProt Q9P1W9); assay: Pim-2 enzyme assay (HTRF, phosphorylation of biotinylated-BAD (S112) peptide); conditions: enzyme assay, Pim-2; read-out: Pim2_IC50
T1 construct: by full length recombinant Pim-1, Pim-2, or Pim-3 protein; hexahistidine tag followed by a thrombin cleavage site (N); made in house; host or cells: Sf9 (baculovirus) or E. coli (pET28)
How it was run: (§1)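 HTRF readout (europium anti-pBAD S112 antibody, streptavidin-APC) of biotin-BAD peptide phosphorylation by recombinant full-length Pim-1 or Pim-2, buffer 60 mM Hepes pH 7.0, 2 mM DTT, 0.05% BSA. Enzymes were His6-tagged, from baculovirus/Sf9 or E. coli.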

[2] = molecular target: T2, full length recombinant Pim-3 protein (Homo sapiens, UniProt Q86V86); assay: Pim-3 enzyme assay (HTRF, phosphorylation of biotinylated-BAD (S112) peptide); conditions: read-out: Pim3 IC50
T2 construct: by full length recombinant Pim-1, Pim-2, or Pim-3 protein; purchased Millipore (UK)
Text: Pim-3 was purchased from Millipore (UK).
The phosphorylation of biotinylated-BAD (S112) peptide by full length recombinant Pim-1, Pim-2, or Pim-3 protein was detected with streptavidin:Allophycocyanin (APC) conjugate and a europium (Eu) labeled antibody directed against phosphorylated-BAD (S112). […] The fluorescence is directly proportional to the amount of phosphorylated BAD peptide present in the reaction.
A reference compound was included on each assay plate in order to validate that plate; on one plate of every assay run, two additional reference compounds were included.
The final buffer conditions were as follows: 60 mM Hepes, pH 7.0, 0.05% BSA, 2 mM DTT. […] The reaction was stopped by the addition of 3 mM EDTA, and fluorescence was measured by an HTRF® Rubystar microplate reader. For each plate, percent of control (POC) values were calculated for each well. Values for the IC50 IP were estimated using a standard 4-parameter logistic model.

[3] = molecular target: T3, full length recombinant Pim-1 protein (Homo sapiens, UniProt P11309); assay: Pim-1 enzyme assay (HTRF, phosphorylation of biotinylated-BAD (S112) peptide); conditions: enzyme assay, Pim-1; read-out: Pim_1_IC50
T3 construct: by full length recombinant Pim-1, Pim-2, or Pim-3 protein; hexahistidine tag followed by a thrombin cleavage site (N); made in house; host or cells: Sf9 (baculovirus) or E. coli (pET28)
How it was run: as §1

T3 sequence (P11309 whole entry): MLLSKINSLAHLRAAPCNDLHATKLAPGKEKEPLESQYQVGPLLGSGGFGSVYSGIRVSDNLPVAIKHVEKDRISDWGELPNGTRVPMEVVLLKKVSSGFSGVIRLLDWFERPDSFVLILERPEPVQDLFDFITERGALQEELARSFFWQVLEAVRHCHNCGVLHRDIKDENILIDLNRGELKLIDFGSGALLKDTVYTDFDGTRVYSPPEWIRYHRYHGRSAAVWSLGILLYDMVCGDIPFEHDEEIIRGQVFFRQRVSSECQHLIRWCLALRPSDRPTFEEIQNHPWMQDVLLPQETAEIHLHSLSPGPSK
T1 sequence (Q9P1W9 whole entry): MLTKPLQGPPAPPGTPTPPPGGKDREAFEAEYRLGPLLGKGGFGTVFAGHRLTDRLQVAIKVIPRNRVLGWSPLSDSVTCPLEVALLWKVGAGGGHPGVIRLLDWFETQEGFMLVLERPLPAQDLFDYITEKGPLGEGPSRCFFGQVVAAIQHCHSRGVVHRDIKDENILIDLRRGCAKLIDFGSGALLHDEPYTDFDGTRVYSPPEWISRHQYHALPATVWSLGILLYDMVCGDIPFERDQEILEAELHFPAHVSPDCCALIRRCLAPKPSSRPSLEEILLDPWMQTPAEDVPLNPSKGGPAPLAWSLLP

IC50 [1] [nM] | IC50 [2] [nM] | IC50 [3] [nM] | SMILES
214 | 29 | 35 | FC(F)(F)Oc1cccc(-c2ccc3[nH]nc(-c4cncc(O[C@@H]5CCCNC5)n4)c3c2)c1 [Example 150, 3-(6-((3R)-3-piperidinyloxy)-2-pyrazinyl)-5-(3-(trifluoromethoxy)phenyl)-1H-indazole]
108 | 27 | 36 | Oc1nccc(-c2ccc3[nH]nc(-c4cncc(O[C@@H]5CCCNC5)n4)c3c2)n1 [Example 155, 4-(3-(6-((3R)-3-piperidinyloxy)-2-pyrazinyl)-1H-indazol-5-yl)-2-pyrimidinol]
> 3000 | 187 | 153 | Fc1cccc(F)c1-c1ccc2[nH]nc(-c3cncc(N4CCCC4)n3)c2c1 [Example 170, 5-(2,6-difluorophenyl)-3-(6-(1-pyrrolidinyl)-2-pyrazinyl)-1H-indazole]
1180 | 153 | 168 | O[C@H]1CCN(c2cncc(-c3n[nH]c4ccc(-c5c(F)cccc5F)cc34)n2)C1 [Example 175, (3S)-1-(6-(5-(2,6-difluorophenyl)-1H-indazol-3-yl)-2-pyrazinyl)-3-pyrrolidinol]
858 | 122 | 168 | CNc1cncc(-c2n[nH]c3ccc(-c4c(F)cccc4F)cc23)n1 [Example 179, 6-(5-(2,6-difluorophenyl)-1H-indazol-3-yl)-N-methyl-2-pyrazinamine]
2080 | 146 | 206 | CN(C)c1cncc(-c2n[nH]c3ccc(-c4c(F)cccc4F)cc23)n1 [Example 181, 6-(5-(2,6-difluorophenyl)-1H-indazol-3-yl)-N,N-dimethyl-2-pyrazinamine]
1250 | 175 | 147 | CNc1nccc(-c2n[nH]c3ccc(-c4c(F)cccc4F)cc23)n1 [Example 192, 4-(5-(2,6-difluorophenyl)-1H-indazol-3-yl)-N-methyl-2-pyrimidinamine]
1340 | 143 | 161 | CC(C)Nc1nccc(-c2n[nH]c3ccc(-c4c(F)cccc4F)cc23)n1 [Example 193, 4-(5-(2,6-difluorophenyl)-1H-indazol-3-yl)-N-(1-methylethyl)-2-pyrimidinamine]
187 | 18 | 37 | C[C@@H]1CCNC[C@H]1Oc1cncc(-c2n[nH]c3ccc(-c4c(F)cccc4F)cc23)n1 [Example 197, 5-(2,6-difluorophenyl)-3-(6-(((3S,4R)-4-methyl-3-piperidinyl)oxy)-2-pyrazinyl)-1H-indazole]
424 | 91 | 120 | Fc1cccc(F)c1-c1ccc2[nH]cc(-c3nccc(NC4CCNCC4)n3)c2c1 [Example 210, 2-(5-(2,6-difluorophenyl)-1H-indol-3-yl)-N-4-piperidinyl-4-pyrimidinamine]
515 | 83 | 45 | Fc1cccc(F)c1-c1ccc2[nH]cc(-c3cncc(O[C@H]4CCCNC4)n3)c2c1 [Example 214, 5-(2,6-difluorophenyl)-3-(6-((3S)-3-piperidinyloxy)-2-pyrazinyl)-1H-indole]

Further lines, the compound ahead of its results:

SMILES | IC50 [1] [nM] | IC50 [2] [nM] | IC50 [3] [nM]
c1cc2[nH]nc(-c3cncc(O[C@@H]4CCCNC4)n3)c2cc1C1CCOCC1 [Example 151, 3-(6-((3R)-3-piperidinyloxy)-2-pyrazinyl)-5-(tetrahydro-2H-pyran-4-yl)-1H-indazole] | 118 | 129 | 27
c1cc2[nH]nc(-c3cncc(O[C@@H]4CCCNC4)n3)c2cc1C1CCCOC1 (stereo partly drawn) [Example 156, 3-(6-((3R)-3-piperidinyloxy)-2-pyrazinyl)-5-(tetrahydro-2H-pyran-3-yl)-1H-indazole] | 144 | 66 | 49
CC(C)Oc1cncc(-c2ccc3[nH]cc(-c4ccc(F)cn4)c3c2)n1 [Example 215, 3-(5-fluoro-2-pyridinyl)-5-(6-(1-methylethoxy)-2-pyrazinyl)-1H-indole] | > 3000 | 538 | 1640
Cc1ccnc(-c2c[nH]c3ccc(-c4cncc(OC(C)C)n4)cc23)c1 [Example 216, 5-(6-(1-methylethoxy)-2-pyrazinyl)-3-(4-methyl-2-pyridinyl)-1H-indole] | 2150 | 245 | 601
CC(C)Oc1cncc(-c2ccc3[nH]cc(-c4cccc(N)n4)c3c2)n1 [Example 217, 6-(5-(6-(1-methylethoxy)-2-pyrazinyl)-1H-indol-3-yl)-2-pyridinamine] | 2350 | 156 | 765
CC(C)Oc1cncc(-c2ccc3[nH]cc(-c4cc(N)ccn4)c3c2)n1 [Example 218, 2-(5-(6-(1-methylethoxy)-2-pyrazinyl)-1H-indol-3-yl)-4-pyridinamine] | > 3000 | 317 | 805
Cc1ccc(-c2c[nH]c3ccc(-c4cncc(OC(C)C)n4)cc23)nc1 [Example 219, 5-(6-(1-methylethoxy)-2-pyrazinyl)-3-(5-methyl-2-pyridinyl)-1H-indole] | > 3000 | 692 | 1130
CC(C)Oc1cncc(-c2ccc3[nH]cc(-c4cccc(N5CCOCC5)n4)c3c2)n1 [Example 220, 5-(6-(1-methylethoxy)-2-pyrazinyl)-3-(6-(4-morpholinyl)-2-pyridinyl)-1H-indole] | > 3000 | 329 | 494
COc1cnc(-c2c[nH]c3ccc(-c4cncc(OC(C)C)n4)cc23)cn1 [Example 222, 3-(5-methoxy-2-pyrazinyl)-5-(6-(1-methylethoxy)-2-pyrazinyl)-1H-indole] | > 3000 | 445 | 732
CC(C)Oc1cncc(-c2ccc3[nH]cc(-c4cccc(-n5cccn5)n4)c3c2)n1 [Example 223, 5-(6-(1-methylethoxy)-2-pyrazinyl)-3-(6-(1H-pyrazol-1-yl)-2-pyridinyl)-1H-indole] | > 3000 | 150 | 142
COc1cncc(-c2c[nH]c3ccc(-c4cncc(OC(C)C)n4)cc23)n1 [Example 224, 3-(6-methoxy-2-pyrazinyl)-5-(6-(1-methylethoxy)-2-pyrazinyl)-1H-indole] | 2270 | 126 | 216
CC(C)Oc1cncc(-c2ccc3[nH]cc(-c4cccc(OC(C)C)n4)c3c2)n1 [Example 226, 5-(6-(1-methylethoxy)-2-pyrazinyl)-3-(6-(1-methylethoxy)-2-pyridinyl)-1H-indole] | > 3000 | 616 | 2200
CC(C)Oc1cncc(-c2ccc3[nH]cc(-c4cccc(N5CCCC5=O)n4)c3c2)n1 [Example 229, 1-(6-(5-(6-(1-methylethoxy)-2-pyrazinyl)-1H-indol-3-yl)-2-pyridinyl)-2-pyrrolidinone] | > 3000 | 147 | 251
Nc1ccc2[nH]cc(-c3cncc(N4CCC(N)CC4)n3)c2c1 [Example 233, 3-(6-(4-aminopiperidin-1-yl)pyrazin-2-yl)-1H-indol-5-amine] | > 3000 | 1760 | 845
CCC(=O)Nc1ccc2[nH]cc(-c3cncc(N4CCC(N)CC4)n3)c2c1 [Example 234, N-(3-(6-(4-aminopiperidin-1-yl)pyrazin-2-yl)-1H-indol-5-yl)propionamide] | 2570 | 348 | 161
